The values below come from patent US12037325B2, “1,2-diaminobenzimidazole derivative” (Carna Biosciences, Inc., priority 2021, dated 2024).

Structures are written as SMILES. Counter-ions that a name gives are not always drawn. A value given as a limit tells only on which side of the number the result lay.

One experiment concerns the target T1, hSTING (Homo sapiens, UniProt Q86WV6).
T1 construct: host or cells: HEK-Blue ISG cells (HEK293-derived SEAP reporter line)
Description: Inhibition test of intracellular human STING (hSTING) pathways using reporter cells (HEK-Blue ISG, SEAP reporter). The format is cell-based. Conditions: stimulation with Compound 3 (10 nM), 21 hours; for IC50: read-out: Inhibitory Activity on hSTING. As for the experimental part:
Since STING activates the transcription factor IRF3 by ligand stimulation, the activity of STING can be evaluated by a reporter assay using a secreted alkaline phosphatase (SEAP reporter) incorporated downstream of the IRF-inducible promoter. In other words, the hSTING inhibitory activity of the test compounds was evaluated using HEK-Blue™ ISG cells (manufactured by InvivoGen, #hkb-isg-1) into which the SEAP reporter was incorporated. The activation of hSTING was performed by stimulation with the small molecule ligand, Compound 3 as described in the literature (Ramanjulu, J. M., et al., Nature. 2018, 564 (7736), 439-443).
The HEK-Blue™ ISG cells were seeded in 96-well plates and cultured overnight at 37° C. in a 5% CO2 incubator. To each well of the cell culture plates, a test compound solution adjusted to have a final concentration of 0.1 to 10 μM was added and cultured in the CO2 incubator for 1 hour. Then, the Compound 3 (final concentration of 10 nM) was added thereto and further cultured in the CO2 incubator for 21 hours. After collecting the culture supernatant from each well, the reporter activity was measured by luminous reaction of alkaline phosphatase.
Method for Evaluating Inhibitory Activity. Taking the reporter activity in the group without test compounds added and with Compound 3 added as 100% and the reporter activity in the group without test compounds added and without Compound 3 added as 0%, IC50 values were determined by regression analysis of the inhibition rate calculated from the reporter activity at each compound concentration and the test compound concentration (logarithm).
Evaluation Result. […] The inhibitory effect on the hSTING was indicated by marking an IC50 value of less than 0.1 μM with ***, that of 0.1 μM or more and less than 1 μM with **, that of 1 μM or more and less than 10 μM with *, and that of 10 μM or more with “-”.

The next experiment concerns the target T2, STING (Homo sapiens, UniProt Q86WV6, G230A/H232R/R293Q/R71H).
T2 construct: host or cells: THP-1 cells, PMA-treated
The experiment is described as follows: Inhibition test of human IFN-β production by cGAMP stimulation in THP-1 cells. The settings on record: PMA-treated THP-1 cells, 2'3'-cGAMP transfection, 18 hours, ELISA of culture supernatant; read-out: Inhibitory effect on the IFN-β production. The format is cell-based. As for the experimental part: The human monocytic cell line THP-1 cells were used to measure the amount of IFN-β produced when stimulated with the endogenous ligand cGAMP, thereby evaluating the inhibitory activity of the test compounds on STING activation.
After THP-1 cells (manufactured by ATCC) were seeded in 96-well plates, PMA (manufactured by Santa Cruz Biotechnology, Inc.) adjusted to a concentration after addition of 100 nM was added and cultured overnight at a 37° C. in a 5% CO2 incubator (10% FBS, 50 U/mL penicillin/50 μg/mL streptomycin-containing RPMI 1640 medium). To each well of the plate, a test compound solution adjusted to a final concentration of 0.001-1 μM of the test compound was added and cultured in the CO2 incubator for 1 hour (DMSO final concentration of 0.1%). 0.12 μg/well of 2′3′-cGAMP (manufactured by ChemieTek, #CT-CGAMP) was introduced into the cells by transfection method using Lipofectamine 2000 (manufactured by Invitrogen) and cultured in the CO2 incubator for another 18 hours. After collecting the culture supernatant from each well, the amount of human IFN-P production in the culture supernatant was measured by ELISA method using R&D human IFN-β Duoset (manufactured by R&D systems).
Method for Evaluating Inhibitory Activity. Taking the amount of human IFN-β production in the group without test compounds added and with cGAMP added as 100% and the amount of human IFN-β production in the group without test compounds added and without cGAMP added as 0%, IC50 values were determined by regression analysis of the inhibition rate calculated from the amount of human IFN-β production at each compound concentration and the test compound concentration (logarithm).
Evaluation Result. […] The inhibitory effect on the IFN-β production was indicated by marking an IC50 value of less than 0.01 μM with ***, that of 0.01 μM or more and less than 0.1 μM with **, that of 0.1 μM or more and less than 1 μM with *, and that of 1 μM or more with “-”, and NT was marked as unmeasured.
For orientation: ELISA stands for enzyme-linked immunosorbent assay.

T2 sequence (Q86WV6 whole entry R71H/G230A/H232R/R293Q): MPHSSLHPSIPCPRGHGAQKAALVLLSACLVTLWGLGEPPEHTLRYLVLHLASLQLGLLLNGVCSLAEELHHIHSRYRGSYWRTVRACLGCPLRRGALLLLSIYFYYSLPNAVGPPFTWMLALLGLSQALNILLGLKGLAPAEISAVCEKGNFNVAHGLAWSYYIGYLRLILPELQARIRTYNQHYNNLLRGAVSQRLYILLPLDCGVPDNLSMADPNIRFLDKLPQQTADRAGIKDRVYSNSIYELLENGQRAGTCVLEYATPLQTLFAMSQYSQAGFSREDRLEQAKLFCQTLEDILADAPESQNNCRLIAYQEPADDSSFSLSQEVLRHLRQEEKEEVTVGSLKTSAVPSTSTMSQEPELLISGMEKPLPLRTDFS
T1 sequence (Q86WV6 whole entry H232R): as the sequence (Q86WV6 whole entry R71H/G230A/H232R/R293Q) above, with H71R, A230G, Q293R counted along it

In the case of `Nn1c(Nc2c[nH]c3ccc(Cl)cc23)nc2cc(C(F)(F)F)ccc21` [Example 1, N2-(5-chloro-1H-indol-3-yl)-5-(trifluoromethyl)-1H-benzo[d]imidazol-1,2-diamine Hydrochloride], the IC50 is under 100 nM on hSTING and under 10 nM at STING. `Nn1c(Nc2c[nH]c3cc(F)c(F)cc23)nc2cc(C(F)(F)F)ccc21` [Example 2, N2-(5,6-difluoro-1H-indol-3-yl)-5-(trifluoromethyl)-1H-benzo[d]imidazol-1,2-diamine Formate]: the IC50 on hSTING is under 100 nM; at STING, under 10 nM. As for `CNn1c(Nc2c[nH]c3ccc(F)c(F)c23)nc2cc(C(F)(F)F)ccc21` [Example 3, N2-(4,5-difluoro-1H-indol-3-yl)-N1-methyl-5-(trifluoromethyl)-1H-benzo[d]imidazol-1,2-diamine Hydrochloride], the IC50 was under 100 nM on hSTING and under 10 nM on STING. Turning to `CNn1c(Nc2c[nH]c3cc(F)c(F)cc23)nc2cc(C(F)(F)F)ccc21` [Example 4, N2-(5,6-difluoro-1H-indol-3-yl)-N1-methyl-5-(trifluoromethyl)-1H-benzo[d]imidazol-1,2-diamine], the figures for the IC50 at hSTING and on STING were under 100 nM and under 10 nM, respectively. In the case of `CNn1c(Nc2c[nH]c3c(F)cc(F)cc23)nc2cc(C(F)(F)F)ccc21` [Example 5, N2-(5,7-difluoro-1H-indol-3-yl)-N1-methyl-5-(trifluoromethyl)-1H-benzo[d]imidazol-1,2-diamine], the IC50 at hSTING was under 100 nM; at STING, under 10 nM. For `CCNn1c(Nc2c[nH]c3ccc(Cl)cc23)nc2cc(C(F)(F)F)ccc21` [Example 6, N2-(5-chloro-1H-indol-3-yl)-N1-ethyl-5-(trifluoromethyl)-1H-benzo[d]imidazol-1,2-diamine Hydrochloride], the figures for the IC50 at hSTING and on STING were under 100 nM and under 10 nM, respectively. The like results for `Nn1c(Nc2c[nH]c3ccc(Cl)cc23)nc2cc(C(F)(F)F)c(F)cc21` [Example 7, N2-(5-chloro-1H-indol-3-yl)-6-fluoro-5-(trifluoromethyl)-1H-benzo[d]imidazole-1,2-diamine hydrochloride] were, in that order, under 100 nM and under 10 nM.

`CNn1c(Nc2c[nH]c3ccc(C)cc23)nc2cc(C(F)(F)F)c(F)cc21` [Example 8, 6-fluoro-N1-methyl-N2-(5-methyl-1H-indol-3-yl)-5-(trifluoromethyl)-1H-benzo[d]imidazole-1,2-diamine]: the IC50 was under 100 nM at hSTING and under 10 nM at STING. Consider `Cc1ccc2[nH]cc(Nc3nc4cc(C(F)(F)F)c(F)cc4n3N)c2c1` [Example 9, 6-fluoro-N2-(5-methyl-1H-indol-3-yl)-5-(trifluoromethyl)-1H-benzo[d]imidazole-1,2-diamine hydrochloride], for which the IC50 at hSTING was 100 to 1000 nM; on STING, under 10 nM. Consider `CNn1c(Nc2c[nH]c3cc(F)c(F)cc23)nc2cc(C(F)(F)F)c(F)cc21` [Example 10, N2-(5,6-difluoro-1H-indol-3-yl)-6-fluoro-N1-methyl-5-(trifluoromethyl)-1H-benzo[d]imidazole-1,2-diamine], for which the results for the IC50 at hSTING and at STING were 100 to 1000 nM and 10 to 100 nM, respectively. Taken in the same sequence, the figures for `Nn1c(Nc2c[nH]c3ccc(F)c(F)c23)nc2cc(C(F)(F)F)ccc21` [Example 11, N2-(4,5-difluoro-1H-indol-3-yl)-5-(trifluoromethyl)-1H-benzo[d]imidazole-1,2-diamine hydrochloride] were 100 to 1000 nM and 10 to 100 nM.

Regarding `CNn1c(Nc2c[nH]c3ccc(F)c(F)c23)nc2cc(C(F)(F)F)c(F)cc21` [Example 12, N2-(4,5-difluoro-1H-indol-3-yl)-6-fluoro-N1-methyl-5-(trifluoromethyl)-1H-benzo[d]imidazole-1,2-diamine hydrochloride], the values for the IC50 at hSTING and on STING were 1000 to 10000 nM and over 1000 nM, respectively. For the molecule `CNn1c(Nc2c[nH]c3c(F)cc(F)cc23)nc2cc(C(F)(F)F)cc(F)c21` [Example 13, N2-(5,7-difluoro-1H-indol-3-yl)-7-fluoro-N1-methyl-5-(trifluoromethyl)-1H-benzo[d]imidazole-1,2-diamine hydrochloride], the IC50 at hSTING is under 100 nM; on STING, under 10 nM. The like results for `CCNn1c(Nc2c[nH]c3ccc(Cl)cc23)nc2cc(C(F)(F)F)cc(F)c21` [Example 14, N2-(5-chloro-1H-indol-3-yl)-N1-ethyl-7-fluoro-5-(trifluoromethyl)-1H-benzo[d]imidazole-1,2-diamine] were, in that order, under 100 nM and under 10 nM.

For `CCNn1c(Nc2c[nH]c3cc(F)c(F)cc23)nc2cc(C(F)(F)F)ccc21` [Example 15, N2-(5,6-difluoro-1H-indol-3-yl)-N1-ethyl-5-(trifluoromethyl)-1H-benzo[d]imidazole-1,2-diamine], the values for the IC50 on hSTING and at STING were under 100 nM and under 10 nM, respectively. Taken in the same sequence, the figures for `CNn1c(Nc2c[nH]c3ccc(F)cc23)nc2cc(C(F)(F)F)ccc21` [Example 16, N2-(5-fluoro-1H-indol-3-yl)-N1-methyl-5-(trifluoromethyl)-1H-benzo[d]imidazole-1,2-diamine hydrochloride] were under 100 nM and under 10 nM. As for `CNn1c(Nc2c[nH]c3ccc(C)c(F)c23)nc2cc(C(F)(F)F)ccc21` [Example 17, N2-(4-fluoro-5-methyl-1H-indol-3-yl)-N1-methyl-5-(trifluoromethyl)-1H-benzo[d]imidazole-1,2-diamine hydrochloride], the IC50 at hSTING was under 100 nM; on STING, under 10 nM. With `CNn1c(Nc2c[nH]c3cc(F)c(C)cc23)nc2cc(C(F)(F)F)ccc21` [Example 18, N2-(6-fluoro-5-methyl-1H-indol-3-yl)-N1-methyl-5-(trifluoromethyl)-1H-benzo[d]imidazole-1,2-diamine], the IC50 on hSTING was under 100 nM; on STING, under 10 nM. Taken in the same sequence, the figures for `CCNn1c(Nc2c[nH]c3c(F)cc(F)cc23)nc2cc(C(F)(F)F)ccc21` [Example 19, N2-(5,7-difluoro-1H-indol-3-yl)-N1-ethyl-5-(trifluoromethyl)-1H-benzo[d]imidazole-1,2-diamine] were under 100 nM and under 10 nM.

On to `CC(C)Nn1c(Nc2c[nH]c3ccc(Cl)cc23)nc2cc(C(F)(F)F)ccc21` [Example 20, N2-(5-chloro-1H-indol-3-yl)-N1-isopropyl-5-(trifluoromethyl)-1H-benzo[d]imidazole-1,2-diamine], for which, at hSTING, the “Inhibitory Activity on hSTING” value was “* *”. With `Nn1c(Nc2c[nH]c3c(F)cc(F)cc23)nc2cc(C(F)(F)F)ccc21` [Example 21, N2-(5,7-difluoro-1H-indol-3-yl)-5-(trifluoromethyl)-1H-benzo[d]imidazole-1,2-diamine hydrochloride], the IC50 was under 100 nM on hSTING and 100 to 1000 nM at STING. In the case of `CCNn1c(Nc2c[nH]c3c(F)cc(F)cc23)nc2cc(C(F)(F)F)cc(F)c21` [Example 22, N2-(5,7-difluoro-1H-indol-3-yl)-N1-ethyl-7-fluoro-5-(trifluoromethyl)-1H-benzo[d]imidazole-1,2-diamine hydrochloride], the IC50 was under 100 nM on hSTING and 10 to 100 nM at STING.
